Source: patent publication US5900488A, “Method for treating mycosis using imidazolylacetonitrile derivatives” (Nihon Nohyaku Co., Ltd., priority 1995, dated 1999)
In brackets after ≈: the same amount, converted by molar mass. Read-outs that look alike come from different tables or passages of the source.

Legend:
Aspergillus fumigatus = assay: In vitro antifungal activity against Aspergillus fumigatus, MIC by twofold agar dilution (Test Example 4); assay type: cell-based
Procedure: MICs were determined by the twofold agar dilution method with casitone agar which constituted with 0.9% bactocasitone, 1% bacto-yeast extract, 2% glucose, 0.1% KH2 PO4, 0.1% Na2 HPO4, 1% Na3 C6 H5 O7 and 1.6% agar. A loopful of each inoculum (1×10^6 conidia/ml) was streaked onto the agar plate containing a compound, and a fungal growth was observed after incubation for 48 hours at 35° C. The MIC was determined as the lowest drug concentration which prevented a visible fungal growth.

Candida albicans = assay: In vitro antifungal activity against Candida albicans, MIC by twofold micro-broth dilution (Test Example 3); assay type: cell-based; details: 48 hours at 35° C., pH 7.0, read-out: MIC
Procedure: MICs were determined by the twofold micro-broth dilution method with RPMI 1640 buffered with morphorino-propanesulfonic acid to a final molarity of 0.165M (pH 7.0). One hundred μl of a yeast cell suspension (1 to 5×10^3 cells/ml) and 100 μl of the compound-containing medium were pipetted into each well flat-bottomed microtiter plates. After incubation for 48 hours at 35° C., the turbidity of each well was measured at 630 nm.

[1] = tested on: trichophyton mentagrophytes TIMM 2789; assay: Therapeutic efficacy on experimental tinea pedis in guinea pigs (Test Example 2); assay type: in vivo
Procedure: Male Hartley guinea pigs (Japan SLC Inc.) weighing 400 to 620 g were used for the infection study. One side of a paper disc (1.5 mm thick×8 mm diameter) was covered with a piece of aluminum foil while the other side was free to carry the inoculum suspension. The disc was immersed with 50 μl of the inoculum suspension (trichophyton mentagrophytes TIMM 2789, 1×10^8 conidia/ml), and was then fixed on the planta pedis of animal feet with an adhesive elastic tape. The disc was removed on the seventh day postinfection. Each agent dissolved in PEG 400 (0.1 ml/locus) was topically applied to the whole soles of guinea pigs once a day for 3 consecutive days, starting on the 10th day postinfection. Five days after the last treatment, the skin tissue from each planta pedis and the corresponding tarsus of all animals was cut into small blocks (about 2×2 mm). Ten skin blocks obtained from each part of the foot were implanted on a Sabouraud's glucose agar plate containing antibiotics, and were cultured at 27° C. for 14 days. The skin blocks yielding fungal growth were regarded as culture-positive, and the foot (planta pedis plus tarsus) with more than one culture-positive skin block was considered fungus-positive. In addition, the intensity of infection was assessed by the scores based on the number of culture-positive skin blocks. Namely, +10, +9, +8, +7, +6, +5, +4, +3, +2, +1 or 0 was given as the score according to the corresponding number of culture-positive skin blocks out of ten skin blocks studied. Statistical analyses for the rate of fungus-positive feet and the average intensity of infection were assessed by Fisher's exact probably test and Mann-Whitney's U-test, respectively.

[2] = tested on: Trichophyton mentagrophytes; assay: In vitro activity against Trichophyton mentagrophytes, MIC by twofold macro-broth dilution (Test Example 1); assay type: cell-based; details: Trichophyton mentagrophytes, 7 days at 27° C.
Procedure: (§1) Minimum inhibitory concentrations (MICs) were determined by the twofold macro-broth dilution method with Sabouraud's glucose broth which constituted with 1% bactopeptone and 4% glucose. To each tube containing 9.8 ml of the broth, 0.1 ml of each testing compound dissolved in DMSO and 0.1 ml of a conidial suspension (1×10^6 conidia/ml) were added. The fungal growth was observed after incubation for 7 days at 27° C. The MIC was determined as the lowest drug concentration which prevented a visible fungal growth.

Trichophyton rubrum = assay: In vitro activity against Trichophyton rubrum, MIC by twofold macro-broth dilution (Test Example 1); assay type: cell-based
Procedure: as §1

[3] = IFO0197, strain IFO 0197, 80% inhibition
[4] = IFO0579, strain IFO 0579, 80% inhibition
[5] = IFO1269, strain IFO 1269, 80% inhibition
[6] = IFO1270, strain IFO 1270, 80% inhibition
[7] = IFO1385, strain IFO 1385, 80% inhibition
[8] = IFO1386, strain IFO 1386, 80% inhibition
[9] = TIMM3163, strain TIMM 3163, 80% inhibition
[10] = TIMM3164, strain TIMM 3164, 80% inhibition
[11] = TIMM3165, strain TIMM 3165, 80% inhibition
[12] = TIMM3166, strain TIMM 3166, 80% inhibition
[13] = 1% in PEG 400, topical once a day for 3 days, p < 0.01 vs untreated and PEG 400, Compound (A) also p < 0.05 vs 1% Racemic Compound (A)
[14] = 1% in PEG 400, topical once a day for 3 days, p < 0.01 vs untreated and PEG 400 control
[15] = IFO5466, 168 h, strain IFO 5466
[16] = IFO5809, 168 h, strain IFO 5809
[17] = IFO5810, 168 h, strain IFO 5810
[18] = IFO5811, 168 h, strain IFO 5811
[19] = IFO5929, 168 h, strain IFO 5929
[20] = TIMM1189, 168 h, strain TIMM 1189
[21] = TIMM1814, 168 h, strain TIMM 1814
[22] = TIMM1815, 168 h, strain TIMM 1815
[23] = TIMM1817, 168 h, strain TIMM 1817
[24] = TIMM2789, 168 h, strain TIMM 2789
[25] = IFO5467, 168 h, strain IFO 5467, 7 days at 27° C.
[26] = IFO5807, 168 h, strain IFO 5807, 7 days at 27° C.
[27] = IFO5808, 168 h, strain IFO 5808, 7 days at 27° C.
[28] = IFO6203, 168 h, strain IFO 6203, 7 days at 27° C.
[29] = IFO6204, 168 h, strain IFO 6204, 7 days at 27° C.
[30] = IFO9185, 168 h, strain IFO 9185, 7 days at 27° C.
[31] = TIMM1822, 168 h, strain TIMM 1822, 7 days at 27° C.
[32] = TIMM1823, 168 h, strain TIMM 1823, 7 days at 27° C.
[33] = TIMM1824, 168 h, strain TIMM 1824, 7 days at 27° C.
[34] = TIMM1830, 168 h, strain TIMM 1830, 7 days at 27° C.

Row | SMILES | MIC (Candida albicans; [3]) | MIC (Candida albicans; [4]) | MIC (Candida albicans; [5]) | MIC (Candida albicans; [6]) | MIC (Candida albicans; [7]) | MIC (Candida albicans; [8]) | MIC (Candida albicans; [9]) | MIC (Candida albicans; [10]) | MIC (Candida albicans; [11]) | MIC (Candida albicans; [12]) | MIC [2, 15] | MIC [2, 16] | MIC [2, 17] | MIC [2, 18] | MIC [2, 19] | MIC [2, 20] | MIC [2, 21] | MIC [2, 22] | MIC [2, 23] | MIC [2, 24] | other results
1 | N#C/C(=C1/SCC(c2ccccc2Cl)S1)n1ccnc1 (racemic) [Racemic Compound (A), (±)-(E)-[4-(2-chlorophenyl)-1,3-dithiolan-2-ylidene]-1-imidazolylacetonitrile] | 0.25 µg/mL (≈ 0.782 µM) | 0.0625 µg/mL (≈ 0.195 µM) | 0.125 µg/mL (≈ 0.391 µM) | 1 µg/mL (≈ 3.13 µM) | 0.25 µg/mL (≈ 0.782 µM) | 0.25 µg/mL (≈ 0.782 µM) | 16 µg/mL (≈ 50 µM) | 0.5 µg/mL (≈ 1.56 µM) | 4 µg/mL (≈ 12.5 µM) | 2 µg/mL (≈ 6.25 µM) | 0.04 µg/mL (≈ 0.125 µM) | 0.01 µg/mL (≈ 0.0313 µM) | 0.01 µg/mL (≈ 0.0313 µM) | 0.04 µg/mL (≈ 0.125 µM) | 0.02 µg/mL (≈ 0.0625 µM) | 0.04 µg/mL (≈ 0.125 µM) | 0.04 µg/mL (≈ 0.125 µM) | 0.04 µg/mL (≈ 0.125 µM) | 0.04 µg/mL (≈ 0.125 µM) | 0.01 µg/mL (≈ 0.0313 µM) | MIC (Aspergillus fumigatus; TIMM0063, strain TIMM 0063, 48 hours at 35° C., read-out: MIC): 0.0013 µg/mL (≈ 0.00406 µM); MIC (Aspergillus fumigatus; TIMM0078, strain TIMM 0078, 48 hours at 35° C., read-out: MIC): 0.0013 µg/mL (≈ 0.00406 µM); MIC (Aspergillus fumigatus; TIMM1728, strain TIMM 1728, 48 hours at 35° C., read-out: MIC): 0.0013 µg/mL (≈ 0.00406 µM); MIC (Aspergillus fumigatus; TIMM1767, strain TIMM 1767, 48 hours at 35° C., read-out: MIC): 0.0025 µg/mL (≈ 0.00782 µM); Fungus-positive rate (%) [1, 13]: 40%; Fungus-positive rate: The number of positive feet/The total number of feet [1, 13]: 4/10 and four feet among the inoculated ten feet; Average intensity of infection, planta pedis (score 0 to +10) [1, 14]: +0.6; Average intensity of infection, tarsus (score 0 to +10) [1, 14]: +0.2; curative effect (in words) ([1]; 1% treated group): significant curative effect; MIC (Trichophyton rubrum; [25]): 0.005 µg/mL (≈ 0.0156 µM); MIC (Trichophyton rubrum; [26]): 0.01 µg/mL (≈ 0.0313 µM); MIC (Trichophyton rubrum; [27]): 0.01 µg/mL (≈ 0.0313 µM); MIC (Trichophyton rubrum; [28]): 0.005 µg/mL (≈ 0.0156 µM); MIC (Trichophyton rubrum; [29]): 0.01 µg/mL (≈ 0.0313 µM); MIC (Trichophyton rubrum; [30]): 0.0025 µg/mL (≈ 0.00782 µM); MIC (Trichophyton rubrum; [31]): 0.005 µg/mL (≈ 0.0156 µM); MIC (Trichophyton rubrum; [32]): 0.01 µg/mL (≈ 0.0313 µM); MIC (Trichophyton rubrum; [33]): 0.005 µg/mL (≈ 0.0156 µM); MIC (Trichophyton rubrum; [34]): 0.0013 µg/mL (≈ 0.00406 µM)
2 | CN(C/C=C/C#CC(C)(C)C)Cc1cccc2ccccc12 [TBF, (E)N-(6,6-Dimethyl-2-hepten-4-ynyl)-N-methyl-1-naphthalenemethaneamine hyrochloride] | > 32 µg/mL | > 32 µg/mL | 4 µg/mL (≈ 13.7 µM) | > 32 µg/mL | > 32 µg/mL | > 32 µg/mL | > 32 µg/mL | > 32 µg/mL | > 32 µg/mL | > 32 µg/mL | 0.02 µg/mL (≈ 0.0686 µM) | 0.01 µg/mL (≈ 0.0343 µM) | 0.005 µg/mL (≈ 0.0172 µM) | 0.01 µg/mL (≈ 0.0343 µM) | 0.01 µg/mL (≈ 0.0343 µM) | 0.01 µg/mL (≈ 0.0343 µM) | 0.01 µg/mL (≈ 0.0343 µM) | 0.02 µg/mL (≈ 0.0686 µM) | 0.01 µg/mL (≈ 0.0343 µM) | 0.0025 µg/mL (≈ 0.00858 µM) | MIC (Trichophyton rubrum; [25]): 0.005 µg/mL (≈ 0.0172 µM); MIC (Trichophyton rubrum; [26]): 0.005 µg/mL (≈ 0.0172 µM); MIC (Trichophyton rubrum; [27]): 0.005 µg/mL (≈ 0.0172 µM); MIC (Trichophyton rubrum; [28]): 0.0025 µg/mL (≈ 0.00858 µM); MIC (Trichophyton rubrum; [29]): 0.005 µg/mL (≈ 0.0172 µM); MIC (Trichophyton rubrum; [30]): 0.0025 µg/mL (≈ 0.00858 µM); MIC (Trichophyton rubrum; [31]): 0.0025 µg/mL (≈ 0.00858 µM); MIC (Trichophyton rubrum; [32]): 0.0025 µg/mL (≈ 0.00858 µM); MIC (Trichophyton rubrum; [33]): 0.0013 µg/mL (≈ 0.00446 µM); MIC (Trichophyton rubrum; [34]): 0.00063 µg/mL (≈ 0.00216 µM)
3 | CCC(C)n1ncn(-c2ccc(N3CCN(c4ccc(OC[C@H]5CO[C@](Cn6cncn6)(c6ccc(Cl)cc6Cl)O5)cc4)CC3)cc2)c1=O (relative stereo) [ITZ, (±)1-sec-Butyl-4-[p[4[p[[2R*,4S*2-(2,4-dichlorophenyl)-2-(1H-1,2,4-trizol-1-ylmethyl)-1,3-dioxolan-4-yl]methoxy]phenyl1-piperazinyl]phenyl.DELTA^21,2,4-triazolin-5-one] | – | – | – | – | – | – | – | – | – | – | – | – | – | – | – | – | – | – | – | – | MIC (Aspergillus fumigatus; TIMM0063, 48 h): 0.04 µg/mL (≈ 0.0567 µM); MIC (Aspergillus fumigatus; TIMM0078, 48 h): 0.04 µg/mL (≈ 0.0567 µM); MIC (Aspergillus fumigatus; TIMM1728, 48 h): 0.08 µg/mL (≈ 0.113 µM); MIC (Aspergillus fumigatus; TIMM1767, 48 h): 0.08 µg/mL (≈ 0.113 µM)
